From article PMC7284125, “Identification of annotated bioactive molecules that impair motility of the blood fluke Schistosoma mansoni” (International Journal for Parasitology: Drugs and Drug …, 2020)

Each molecule was assayed on S. mansoni schistosomulae (assay: Phenotypic primary screen assay on schistosomulae (phenotype; viability by methylene blue dye exclusion)). Settings: three-day-old schistosomulae, 10 μM, 24 h; estimated 5 days post compound exposure.
Format: cell-based, Schistosoma mansoni
In short: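 Parasites lacking contraction/relaxation cycles and showing dark internal granulations counted as dead. Movement and body shape were compared with DMSO-treated controls under a stereo microscope at 24 h and at five days of exposure. Larvae came from infected snails shed under light for 2 h at 32 °C.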

SMILES | Phenotype
NCC(=O)Nc1ccc(-n2nc(C(F)(F)F)cc2-c2ccc3c(ccc4ccccc43)c2)cc1 [OSU-03012] | big, granulated
CNCc1ccc(C)c(NC(=O)c2ccc(Nc3nc(-c4ccccc4)c4ccccc4n3)cc2)c1 [BMS-833923] | big, granulated
C=CC(=O)Nc1cc(Nc2nccc(-c3cn(C)c4ccccc34)n2)c(OC)cc1N(C)CCN(C)C [AZD9291] | dark, granulated, some blebbing
CN(C)CCC[C@@]1(c2ccc(F)cc2)OCc2cc(C#N)ccc21 [Escitalopram] | abnormal morphology
CN(C)CC/C=C1/c2ccccc2Sc2ccc(Cl)cc21 [Chlorprothixene] | elongated
CNCc1ccc(-c2cc(-c3nc(-c4ccc(S(=O)(=O)C(C)C)cc4)cnc3N)on2)cc1 [VE-822] | dark, granulated

What follows are molecules tested on S. mansoni adult worms (assay: Motility assay on adult parasites (pixel displacement, relative to DMSO control)). Settings: adults, 10 μM, long-term after washout.
Format: cell-based, Schistosoma mansoni
In short: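 Unpaired adult worms from mice 6 weeks post-infection kept in OPTI-MEM with 5% dialyzed FBS and exposed to compounds at 1 and 10 μM for 24 h. Motility filmed 1 min at 10 frames/s, quantified by pixel displacement versus DMSO-treated worms; recovery followed up to five days after washout.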

motility phenotype in words | SMILES
Significant hypomotility | CNCc1ccc(-c2cc(-c3nc(-c4ccc(S(=O)(=O)C(C)C)cc4)cnc3N)on2)cc1 [VE-822]

Same assay, conditions: secondary screen, 10 μM, D1, Female adult worms

SMILES | Fractional motility
NCC(=O)Nc1ccc(-n2nc(C(F)(F)F)cc2-c2ccc3c(ccc4ccccc43)c2)cc1 [OSU-03012] | 0.79
CNCc1ccc(C)c(NC(=O)c2ccc(Nc3nc(-c4ccccc4)c4ccccc4n3)cc2)c1 [BMS-833923] | -0.84
C=CC(=O)Nc1cc(Nc2nccc(-c3cn(C)c4ccccc34)n2)c(OC)cc1N(C)CCN(C)C [AZD9291] | -0.59
CN(C)CCC[C@@]1(c2ccc(F)cc2)OCc2cc(C#N)ccc21 [Escitalopram] | 2.54
CN(C)CC/C=C1/c2ccccc2Sc2ccc(Cl)cc21 [Chlorprothixene] | 2.18
CNCc1ccc(-c2cc(-c3nc(-c4ccc(S(=O)(=O)C(C)C)cc4)cnc3N)on2)cc1 [VE-822] | -0.46

Same assay, conditions: secondary screen, 10 μM, D1, Male adult worms

SMILES | Fractional motility
NCC(=O)Nc1ccc(-n2nc(C(F)(F)F)cc2-c2ccc3c(ccc4ccccc43)c2)cc1 [OSU-03012] | 1.37
CNCc1ccc(C)c(NC(=O)c2ccc(Nc3nc(-c4ccccc4)c4ccccc4n3)cc2)c1 [BMS-833923] | -0.59
C=CC(=O)Nc1cc(Nc2nccc(-c3cn(C)c4ccccc34)n2)c(OC)cc1N(C)CCN(C)C [AZD9291] | 0.48
CN(C)CCC[C@@]1(c2ccc(F)cc2)OCc2cc(C#N)ccc21 [Escitalopram] | 6.67
CN(C)CC/C=C1/c2ccccc2Sc2ccc(Cl)cc21 [Chlorprothixene] | 2.53
CNCc1ccc(-c2cc(-c3nc(-c4ccc(S(=O)(=O)C(C)C)cc4)cnc3N)on2)cc1 [VE-822] | -0.30

Same assay, conditions: secondary screen, 10 μM, D5, Female adult worms

SMILES | Fractional motility
NCC(=O)Nc1ccc(-n2nc(C(F)(F)F)cc2-c2ccc3c(ccc4ccccc43)c2)cc1 [OSU-03012] | -0.15
CNCc1ccc(C)c(NC(=O)c2ccc(Nc3nc(-c4ccccc4)c4ccccc4n3)cc2)c1 [BMS-833923] | -0.64
C=CC(=O)Nc1cc(Nc2nccc(-c3cn(C)c4ccccc34)n2)c(OC)cc1N(C)CCN(C)C [AZD9291] | -0.14
CN(C)CCC[C@@]1(c2ccc(F)cc2)OCc2cc(C#N)ccc21 [Escitalopram] | 0.95
CN(C)CC/C=C1/c2ccccc2Sc2ccc(Cl)cc21 [Chlorprothixene] | 0.23
CNCc1ccc(-c2cc(-c3nc(-c4ccc(S(=O)(=O)C(C)C)cc4)cnc3N)on2)cc1 [VE-822] | -0.67

Same assay, conditions: secondary screen, 10 μM, D5, Male adult worms

SMILES | Fractional motility
NCC(=O)Nc1ccc(-n2nc(C(F)(F)F)cc2-c2ccc3c(ccc4ccccc43)c2)cc1 [OSU-03012] | 0.62
CNCc1ccc(C)c(NC(=O)c2ccc(Nc3nc(-c4ccccc4)c4ccccc4n3)cc2)c1 [BMS-833923] | 0.14
C=CC(=O)Nc1cc(Nc2nccc(-c3cn(C)c4ccccc34)n2)c(OC)cc1N(C)CCN(C)C [AZD9291] | -0.20
CN(C)CCC[C@@]1(c2ccc(F)cc2)OCc2cc(C#N)ccc21 [Escitalopram] | 0.26
CN(C)CC/C=C1/c2ccccc2Sc2ccc(Cl)cc21 [Chlorprothixene] | 0.16
CNCc1ccc(-c2cc(-c3nc(-c4ccc(S(=O)(=O)C(C)C)cc4)cnc3N)on2)cc1 [VE-822] | -0.66

These molecules were tested on S. mansoni schistosomulae (assay: Phenotypic primary screen assay on schistosomulae (phenotype; viability by methylene blue dye exclusion)). Settings: Schistosoma mansoni; three-day-old schistosomulae, 10 μM, 24 h; calculated 5 days post compound exposure; read-out: Viability (%).
Format: cell-based

SMILES | viability at 10 µM [%]
NCC(=O)Nc1ccc(-n2nc(C(F)(F)F)cc2-c2ccc3c(ccc4ccccc43)c2)cc1 [OSU-03012] | 1
CNCc1ccc(C)c(NC(=O)c2ccc(Nc3nc(-c4ccccc4)c4ccccc4n3)cc2)c1 [BMS-833923] | 32.5
C=CC(=O)Nc1cc(Nc2nccc(-c3cn(C)c4ccccc34)n2)c(OC)cc1N(C)CCN(C)C [AZD9291] | 39.5
CN(C)CCC[C@@]1(c2ccc(F)cc2)OCc2cc(C#N)ccc21 [Escitalopram] | 98
CN(C)CC/C=C1/c2ccccc2Sc2ccc(Cl)cc21 [Chlorprothixene] | 99
CNCc1ccc(-c2cc(-c3nc(-c4ccc(S(=O)(=O)C(C)C)cc4)cnc3N)on2)cc1 [VE-822] | 11.5

These molecules were tested on S. mansoni schistosomulae (assay: Motility assay on schistosomulae (pixel displacement, relative to DMSO control)). Settings: Schistosoma mansoni, 120 h; Selleckchem customized library secondary screen, 24h, D5, 1 µM; read-out: Fractional motility.
Format: cell-based, Schistosoma mansoni
In short: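 Mechanically transformed S. mansoni schistosomulae (200/well) in Opti-MEM with 5% dialyzed FBS were exposed to compounds at 1 and 10 μM for 24 h at 37 °C, 5% CO2. Motility filmed at 10 frames/s for 1 min and quantified by pixel displacement relative to DMSO-treated controls.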

SMILES | activity at 1 µM [%]
CN(C)CC/C=C1/c2ccccc2Sc2ccc(Cl)cc21 [Chlorprothixene] | 207

Same assay, conditions: Schistosoma mansoni, 120 h; schistosomulae, secondary screen, 24h exposure, read at D5, 1 µM; read-out: Fractional motility

SMILES | activity at 1 µM [%]
NCC(=O)Nc1ccc(-n2nc(C(F)(F)F)cc2-c2ccc3c(ccc4ccccc43)c2)cc1 [OSU-03012] | 26
CNCc1ccc(C)c(NC(=O)c2ccc(Nc3nc(-c4ccccc4)c4ccccc4n3)cc2)c1 [BMS-833923] | -48
C=CC(=O)Nc1cc(Nc2nccc(-c3cn(C)c4ccccc34)n2)c(OC)cc1N(C)CCN(C)C [AZD9291] | 134
CN(C)CCC[C@@]1(c2ccc(F)cc2)OCc2cc(C#N)ccc21 [Escitalopram] | 16
CNCc1ccc(-c2cc(-c3nc(-c4ccc(S(=O)(=O)C(C)C)cc4)cnc3N)on2)cc1 [VE-822] | -14

Same assay, conditions: Schistosoma mansoni; schistosomulae, secondary screen, 24h exposure, read at D1, 1 µM; read-out: Fractional motility

SMILES | activity at 1 µM [%]
NCC(=O)Nc1ccc(-n2nc(C(F)(F)F)cc2-c2ccc3c(ccc4ccccc43)c2)cc1 [OSU-03012] | 26
CNCc1ccc(C)c(NC(=O)c2ccc(Nc3nc(-c4ccccc4)c4ccccc4n3)cc2)c1 [BMS-833923] | 10
C=CC(=O)Nc1cc(Nc2nccc(-c3cn(C)c4ccccc34)n2)c(OC)cc1N(C)CCN(C)C [AZD9291] | 89
CN(C)CCC[C@@]1(c2ccc(F)cc2)OCc2cc(C#N)ccc21 [Escitalopram] | 361
CNCc1ccc(-c2cc(-c3nc(-c4ccc(S(=O)(=O)C(C)C)cc4)cnc3N)on2)cc1 [VE-822] | -37

Same assay, conditions: Selleckchem customized library secondary screen, 24h, D1, 10 µM

SMILES | Fractional motility
CN(C)CC/C=C1/c2ccccc2Sc2ccc(Cl)cc21 [Chlorprothixene] | 73.31

Same assay, conditions: Selleckchem customized library secondary screen, 24h, D5, 10 µM

SMILES | Fractional motility
CN(C)CC/C=C1/c2ccccc2Sc2ccc(Cl)cc21 [Chlorprothixene] | 9.20

Same assay, conditions: schistosomulae, 1h exposure, read at D1, 10 µM

SMILES | Fractional motility
C=CC(=O)Nc1cc(Nc2nccc(-c3cn(C)c4ccccc34)n2)c(OC)cc1N(C)CCN(C)C [AZD9291] | 0.30
CNCc1ccc(-c2cc(-c3nc(-c4ccc(S(=O)(=O)C(C)C)cc4)cnc3N)on2)cc1 [VE-822] | -0.26

Same assay, conditions: schistosomulae, 1h exposure, read at D5, 10 µM

SMILES | Fractional motility
C=CC(=O)Nc1cc(Nc2nccc(-c3cn(C)c4ccccc34)n2)c(OC)cc1N(C)CCN(C)C [AZD9291] | -0.42
CNCc1ccc(-c2cc(-c3nc(-c4ccc(S(=O)(=O)C(C)C)cc4)cnc3N)on2)cc1 [VE-822] | -0.63

Same assay, conditions: schistosomulae, 3h exposure, read at D1, 10 µM

SMILES | Fractional motility
C=CC(=O)Nc1cc(Nc2nccc(-c3cn(C)c4ccccc34)n2)c(OC)cc1N(C)CCN(C)C [AZD9291] | 1.06
CNCc1ccc(-c2cc(-c3nc(-c4ccc(S(=O)(=O)C(C)C)cc4)cnc3N)on2)cc1 [VE-822] | -0.72

Same assay, conditions: schistosomulae, 3h exposure, read at D5, 10 µM

SMILES | Fractional motility
C=CC(=O)Nc1cc(Nc2nccc(-c3cn(C)c4ccccc34)n2)c(OC)cc1N(C)CCN(C)C [AZD9291] | -0.33
CNCc1ccc(-c2cc(-c3nc(-c4ccc(S(=O)(=O)C(C)C)cc4)cnc3N)on2)cc1 [VE-822] | -0.69

Same assay, conditions: schistosomulae, 6h exposure, read at D1, 10 µM

SMILES | Fractional motility
C=CC(=O)Nc1cc(Nc2nccc(-c3cn(C)c4ccccc34)n2)c(OC)cc1N(C)CCN(C)C [AZD9291] | -0.37
CNCc1ccc(-c2cc(-c3nc(-c4ccc(S(=O)(=O)C(C)C)cc4)cnc3N)on2)cc1 [VE-822] | 3.57

Same assay, conditions: schistosomulae, 6h exposure, read at D5, 10 µM

SMILES | Fractional motility
C=CC(=O)Nc1cc(Nc2nccc(-c3cn(C)c4ccccc34)n2)c(OC)cc1N(C)CCN(C)C [AZD9291] | 0.0374
CNCc1ccc(-c2cc(-c3nc(-c4ccc(S(=O)(=O)C(C)C)cc4)cnc3N)on2)cc1 [VE-822] | 0.02

Same assay, conditions: schistosomulae, after 24 h exposure

motility phenotype in words | SMILES
high levels of hypermotility | CN(C)CC/C=C1/c2ccccc2Sc2ccc(Cl)cc21 [Chlorprothixene]

Same assay, conditions: schistosomulae, secondary screen, 24h exposure, read at D1, 10 µM

SMILES | Fractional motility
NCC(=O)Nc1ccc(-n2nc(C(F)(F)F)cc2-c2ccc3c(ccc4ccccc43)c2)cc1 [OSU-03012] | -1.00
CNCc1ccc(C)c(NC(=O)c2ccc(Nc3nc(-c4ccccc4)c4ccccc4n3)cc2)c1 [BMS-833923] | 10.40
C=CC(=O)Nc1cc(Nc2nccc(-c3cn(C)c4ccccc34)n2)c(OC)cc1N(C)CCN(C)C [AZD9291] | 7.13
CN(C)CCC[C@@]1(c2ccc(F)cc2)OCc2cc(C#N)ccc21 [Escitalopram] | 5.42
CNCc1ccc(-c2cc(-c3nc(-c4ccc(S(=O)(=O)C(C)C)cc4)cnc3N)on2)cc1 [VE-822] | -0.68

Same assay, conditions: schistosomulae, secondary screen, 24h exposure, read at D5, 10 µM

SMILES | Fractional motility
NCC(=O)Nc1ccc(-n2nc(C(F)(F)F)cc2-c2ccc3c(ccc4ccccc43)c2)cc1 [OSU-03012] | -0.72
CNCc1ccc(C)c(NC(=O)c2ccc(Nc3nc(-c4ccccc4)c4ccccc4n3)cc2)c1 [BMS-833923] | -0.90
C=CC(=O)Nc1cc(Nc2nccc(-c3cn(C)c4ccccc34)n2)c(OC)cc1N(C)CCN(C)C [AZD9291] | -0.73
CN(C)CCC[C@@]1(c2ccc(F)cc2)OCc2cc(C#N)ccc21 [Escitalopram] | 0.71
CNCc1ccc(-c2cc(-c3nc(-c4ccc(S(=O)(=O)C(C)C)cc4)cnc3N)on2)cc1 [VE-822] | -0.83

Same assay, conditions: three-day old schistosomulae, incubation 1 h, 3 h, 6 h

SMILES | motility in extended assay with reduced incubation times, in words
CNCc1ccc(-c2cc(-c3nc(-c4ccc(S(=O)(=O)C(C)C)cc4)cnc3N)on2)cc1 [VE-822] | did not exhibit a significant change before the 24 hr incubation cut-off
